PubChem BioAssay (NCI)
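A five-concentration, 48-hour dose response in 96-well plates underlies each endpoint, interpolated linearly between surrounding concentrations. TGI: concentration producing complete growth inhibition.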

Legend:
Assay in all cases: inhibition of tumour cell growth, NCI panel, 48 h
SK-OV-3 ovarian = system: SK-OV-3 ovarian
MALME-3M melanoma = system: MALME-3M melanoma
HL-60(TB) leukemia = system: HL-60(TB) leukemia
COLO 205 colon = system: COLO 205 colon
NCI-H460 lung = system: NCI-H460 lung
HT29 colon = system: HT29 colon
SR leukemia = system: SR leukemia
HOP-92 NSCLC = system: HOP-92 NSCLC
RXF-631 renal = system: RXF-631 renal
SF-539 CNS = system: SF-539 CNS
SNB-78 CNS = system: SNB-78 CNS
A498 renal = system: A498 renal
DMS 273 small cell lung = system: DMS 273 small cell lung
SN12C renal = system: SN12C renal
SNB-75 CNS = system: SNB-75 CNS
OVCAR-5 ovarian = system: OVCAR-5 ovarian
DMS 114 small cell lung = system: DMS 114 small cell lung
HOP-18 NSCLC = system: HOP-18 NSCLC
UACC-62 melanoma = system: UACC-62 melanoma
MOLT-4 leukemia = system: MOLT-4 leukemia
NCI-H226 lung = system: NCI-H226 lung
TK-10 renal = system: TK-10 renal
RXF 393 renal = system: RXF 393 renal
NCI-H23 lung = system: NCI-H23 lung
M19-MEL melanoma = system: M19-MEL melanoma
OVCAR-3 ovarian = system: OVCAR-3 ovarian
IGROV1 ovarian = system: IGROV1 ovarian
786-0 renal = system: 786-0 renal
SK-MEL-5 melanoma = system: SK-MEL-5 melanoma
SK-MEL-28 melanoma = system: SK-MEL-28 melanoma
HCC-2998 colon = system: HCC-2998 colon
SW-620 colon = system: SW-620 colon
M14 melanoma = system: M14 melanoma
U251 CNS = system: U251 CNS
LOX IMVI melanoma = system: LOX IMVI melanoma
KM20L2 colon = system: KM20L2 colon
UACC-257 melanoma = system: UACC-257 melanoma
CAKI-1 renal = system: CAKI-1 renal
OVCAR-8 ovarian = system: OVCAR-8 ovarian
UO-31 renal = system: UO-31 renal
HOP-62 NSCLC = system: HOP-62 NSCLC
RPMI-8226 leukemia = system: RPMI-8226 leukemia
HCT-116 colon = system: HCT-116 colon
CCRF-CEM leukemia = system: CCRF-CEM leukemia
OVCAR-4 ovarian = system: OVCAR-4 ovarian
LXFL 529 NSCLC = system: LXFL 529 NSCLC
EKVX NSCLC = system: EKVX NSCLC
A549 NSCLC = system: A549 NSCLC
NCI-H522 lung = system: NCI-H522 lung
DLD-1 colon = system: DLD-1 colon
SF-268 CNS = system: SF-268 CNS
K-562 leukemia = system: K-562 leukemia
SF-295 CNS = system: SF-295 CNS
SK-MEL-2 melanoma = system: SK-MEL-2 melanoma
HCT-15 colon = system: HCT-15 colon
SNB-19 CNS = system: SNB-19 CNS
KM12 colon = system: KM12 colon
ACHN renal = system: ACHN renal
T-47D breast = system: T-47D breast
MDA-N = system: MDA-N
BT-549 breast = system: BT-549 breast
DU-145 prostate = system: DU-145 prostate
HS 578T breast = system: HS 578T breast
MDA-MB-435 = system: MDA-MB-435
PC-3 prostate = system: PC-3 prostate
MDA-MB-231 breast = system: MDA-MB-231 breast
MCF7 breast = system: MCF7 breast
NCI/ADR-RES ovarian = system: NCI/ADR-RES ovarian
XF 498 CNS = system: XF 498 CNS

Cc1cccc(C)c1NC(=O)C(=O)CC(=O)CO
TGI (SK-OV-3 ovarian): > 100 µM | TGI (MALME-3M melanoma): > 100 µM | TGI (HL-60(TB) leukemia): > 100 µM | TGI (COLO 205 colon): > 100 µM | TGI (NCI-H460 lung): > 100 µM | TGI (HT29 colon): > 100 µM | TGI (SR leukemia): > 100 µM | TGI (HOP-92 NSCLC): > 100 µM | TGI (RXF-631 renal): > 100 µM | TGI (SF-539 CNS): > 100 µM | TGI (SNB-78 CNS): > 100 µM | TGI (A498 renal): > 100 µM | TGI (DMS 273 small cell lung): > 100 µM | TGI (SN12C renal): > 100 µM | TGI (SNB-75 CNS): > 100 µM | TGI (OVCAR-5 ovarian): > 100 µM | TGI (DMS 114 small cell lung): > 100 µM | TGI (HOP-18 NSCLC): > 100 µM | TGI (UACC-62 melanoma): > 100 µM | TGI (MOLT-4 leukemia): > 100 µM | TGI (NCI-H226 lung): > 100 µM | TGI (TK-10 renal): > 100 µM | TGI (RXF 393 renal): > 100 µM | TGI (NCI-H23 lung): > 100 µM | TGI (M19-MEL melanoma): > 100 µM | TGI (OVCAR-3 ovarian): > 100 µM | TGI (IGROV1 ovarian): > 100 µM | TGI (786-0 renal): > 100 µM | TGI (SK-MEL-5 melanoma): > 100 µM | TGI (SK-MEL-28 melanoma): > 100 µM | TGI (HCC-2998 colon): > 100 µM | TGI (SW-620 colon): > 100 µM | TGI (M14 melanoma): > 100 µM | TGI (U251 CNS): > 100 µM | TGI (LOX IMVI melanoma): > 100 µM | TGI (KM20L2 colon): > 100 µM | TGI (UACC-257 melanoma): > 100 µM | TGI (CAKI-1 renal): > 100 µM | TGI (OVCAR-8 ovarian): > 100 µM | TGI (UO-31 renal): > 100 µM | TGI (HOP-62 NSCLC): > 100 µM | TGI (RPMI-8226 leukemia): > 100 µM | TGI (HCT-116 colon): > 100 µM | TGI (CCRF-CEM leukemia): > 100 µM | TGI (OVCAR-4 ovarian): > 100 µM | TGI (LXFL 529 NSCLC): > 100 µM | TGI (EKVX NSCLC): > 100 µM | TGI (A549 NSCLC): > 100 µM | TGI (NCI-H522 lung): > 100 µM | TGI (DLD-1 colon): > 100 µM | TGI (SF-268 CNS): > 100 µM | TGI (K-562 leukemia): > 100 µM | TGI (SF-295 CNS): > 100 µM | TGI (SK-MEL-2 melanoma): > 100 µM | TGI (HCT-15 colon): > 100 µM | TGI (SNB-19 CNS): > 100 µM | TGI (KM12 colon): > 100 µM | TGI (ACHN renal): > 100 µM

Cc1ccnc2c1c(=O)c1ccccc1n2C
TGI (SK-OV-3 ovarian): > 100 µM | TGI (MALME-3M melanoma): > 100 µM | TGI (HL-60(TB) leukemia): > 100 µM | TGI (COLO 205 colon): > 100 µM | TGI (NCI-H460 lung): 44.9 µM | TGI (HT29 colon): 85.2 µM | TGI (T-47D breast): > 100 µM | TGI (SR leukemia): > 100 µM | TGI (HOP-92 NSCLC): > 100 µM | TGI (SF-539 CNS): > 100 µM | TGI (A498 renal): > 100 µM | TGI (SN12C renal): > 100 µM | TGI (MDA-N): > 100 µM | TGI (SNB-75 CNS): 56.3 µM | TGI (OVCAR-5 ovarian): > 100 µM | TGI (UACC-62 melanoma): 41.4 µM | TGI (MOLT-4 leukemia): 73.8 µM | TGI (NCI-H226 lung): > 100 µM | TGI (TK-10 renal): 89.8 µM | TGI (BT-549 breast): 81.9 µM | TGI (RXF 393 renal): > 100 µM | TGI (NCI-H23 lung): > 100 µM | TGI (OVCAR-3 ovarian): > 100 µM | TGI (IGROV1 ovarian): > 100 µM | TGI (786-0 renal): > 100 µM | TGI (DU-145 prostate): > 100 µM | TGI (SK-MEL-5 melanoma): 47.2 µM | TGI (HS 578T breast): 73.5 µM | TGI (SK-MEL-28 melanoma): > 100 µM | TGI (HCC-2998 colon): > 100 µM | TGI (SW-620 colon): > 100 µM | TGI (M14 melanoma): > 100 µM | TGI (U251 CNS): > 100 µM | TGI (LOX IMVI melanoma): > 100 µM | TGI (MDA-MB-435): > 100 µM | TGI (UACC-257 melanoma): > 100 µM | TGI (CAKI-1 renal): 51.4 µM | TGI (OVCAR-8 ovarian): > 100 µM | TGI (UO-31 renal): 36.5 µM | TGI (PC-3 prostate): > 100 µM | TGI (HOP-62 NSCLC): > 100 µM | TGI (RPMI-8226 leukemia): > 100 µM | TGI (HCT-116 colon): > 100 µM | TGI (CCRF-CEM leukemia): > 100 µM | TGI (OVCAR-4 ovarian): > 100 µM | TGI (EKVX NSCLC): > 100 µM | TGI (NCI-H522 lung): 65.7 µM | TGI (SF-268 CNS): > 100 µM | TGI (MDA-MB-231 breast): > 100 µM | TGI (K-562 leukemia): > 100 µM | TGI (SF-295 CNS): > 100 µM | TGI (SK-MEL-2 melanoma): > 100 µM | TGI (HCT-15 colon): > 100 µM | TGI (SNB-19 CNS): > 100 µM | TGI (KM12 colon): > 100 µM | TGI (MCF7 breast): > 100 µM | TGI (NCI/ADR-RES ovarian): > 100 µM | TGI (ACHN renal): 56.8 µM

CCCC(=O)N[C@@H](Cc1cc(I)c(O)c(I)c1)C(=O)NCCCNCCCCNCCCNC(=O)[C@@H](N)CCCN=C(N)N
TGI (MALME-3M melanoma): > 100 µM | TGI (HL-60(TB) leukemia): > 100 µM | TGI (COLO 205 colon): > 100 µM | TGI (NCI-H460 lung): > 100 µM | TGI (HT29 colon): > 100 µM | TGI (SR leukemia): > 100 µM | TGI (SF-539 CNS): > 100 µM | TGI (DMS 273 small cell lung): > 100 µM | TGI (SN12C renal): > 100 µM | TGI (DMS 114 small cell lung): > 100 µM | TGI (UACC-62 melanoma): > 100 µM | TGI (MOLT-4 leukemia): > 100 µM | TGI (NCI-H226 lung): > 100 µM | TGI (TK-10 renal): > 100 µM | TGI (RXF 393 renal): > 100 µM | TGI (NCI-H23 lung): > 100 µM | TGI (M19-MEL melanoma): > 100 µM | TGI (OVCAR-3 ovarian): > 100 µM | TGI (IGROV1 ovarian): > 100 µM | TGI (786-0 renal): > 100 µM | TGI (XF 498 CNS): > 100 µM | TGI (SK-MEL-5 melanoma): > 100 µM | TGI (SK-MEL-28 melanoma): > 100 µM | TGI (HCC-2998 colon): > 100 µM | TGI (SW-620 colon): > 100 µM | TGI (M14 melanoma): > 100 µM | TGI (U251 CNS): > 100 µM | TGI (LOX IMVI melanoma): > 100 µM | TGI (KM20L2 colon): > 100 µM | TGI (UACC-257 melanoma): > 100 µM | TGI (OVCAR-8 ovarian): > 100 µM | TGI (UO-31 renal): > 100 µM | TGI (HOP-62 NSCLC): > 100 µM | TGI (RPMI-8226 leukemia): > 100 µM | TGI (HCT-116 colon): > 100 µM | TGI (CCRF-CEM leukemia): > 100 µM | TGI (LXFL 529 NSCLC): > 100 µM | TGI (EKVX NSCLC): > 100 µM | TGI (A549 NSCLC): > 100 µM | TGI (NCI-H522 lung): > 100 µM | TGI (K-562 leukemia): > 100 µM | TGI (HCT-15 colon): > 100 µM | TGI (SNB-19 CNS): > 100 µM | TGI (KM12 colon): > 100 µM | TGI (ACHN renal): > 100 µM
